Measurements from PubChem BioAssay AID1259408 (Genetic Toxicology Data Bank (GENE-TOX), 2018).
Active and inactive are the calls of the source. The rule behind the calls is not given here.

Test system: GENE-TOX genotoxicity assays, various organisms and cells
Assay: GENE-TOX mutagenicity studies
Details: for call: Assay Type: In vivo carcinogenicity studies
[1] = Species/Cell Type: Saccharomyces cerevisiae, Assay Type: Mitotic recombination or gene conversion, Assay Code: YEC-, Evaluation Type: Evaluation A (Pre-1980)
[2] = Species/Cell Type: Salmonella typhimurium (one or more of the five standard strains: TA98, TA100, TA1535, TA1537, and TA1538), Assay Type: Histidine reverse gene mutation, Ames assay, Assay Code: SALT, Evaluation Type: Evaluation A (Pre-1980)
[3] = Species/Cell Type: Rodents, Sex: Male, Assay Type: Dominant lethal test, Assay Code: DLT-, Evaluation Type: Evaluation A (Pre-1980)
[4] = Species/Cell Type: Salmonella typhimurium (one or more of the five standard strains: TA98, TA100, TA1535, TA1537, and TA1538), Assay Type: Histidine reverse gene mutation, Ames assay, Assay Code: SAL+, Evaluation Type: Evaluation A (Pre-1980)
[5] = Species/Cell Type: Drosophila melanogaster, Assay Type: Sex-linked recessive lethal gene mutation, Assay Code: SRLT, Evaluation Type: Evaluation A (Pre-1980)
[6] = Species/Cell Type: Nonhuman, Assay Code: CCG+L, Evaluation Type: Evaluation A (Pre-1980)
[7] = Species/Cell Type: Salmonella typhimurium (one or more of the five standard strains: TA98, TA100, TA1535, TA1537, and TA1538), Assay Type: Histidine reverse gene mutation, Ames assay, Assay Code: SAL+*, Activation: With metabolic activation, Evaluation Type: Evaluation A (Pre-1980)
[8] = Species/Cell Type: Saccharomyces cerevisiae, Assay Type: Mitotic recombination or gene conversion, Assay Code: YEH-, Evaluation Type: Evaluation A (Pre-1980)
[9] = Species/Cell Type: Salmonella typhimurium, Assay Type: Forward and reverse gene mutation, host-mediated assay, Assay Code: HMA-, Evaluation Type: Evaluation A (Pre-1980)
[10] = Species/Cell Type: Escherichia coli polA (W3119 vs P3478), Assay Type: Rec-assay, DNA effects (bacterial DNA repair), Assay Code: RE1+, Evaluation Type: Evaluation A (Pre-1980)
[11] = Species/Cell Type: Salmonella typhimurium (one or more of the five standard strains: TA98, TA100, TA1535, TA1537, and TA1538), Assay Type: Histidine reverse gene mutation, Ames assay, Assay Code: SAL-, Evaluation Type: Evaluation A (Pre-1980)

NS(=O)(=O)c1ccccc1C(=O)O
mutagenic call (Species/Cell Type: Mammalian polychromatic erythrocytes, Assay Type: Micronucleus test, chromosome aberrations, Assay Code: MNTT, Evaluation Type: Evaluation B (Post-1980)): no conclusion

CCC(=O)N(C)N=O
mutagenic call (Species/Cell Type: Saccharomyces cerevisiae, Assay Type: Reverse gene mutation, Assay Code: YER+, Evaluation Type: Evaluation A (Pre-1980)): active; positive

CCNc1nc(NC(C)(C)C)nc(OC)n1
mutagenic call [1]: inactive; negative

O=NN(CCCCO)CCCCO
mutagenic call [2]: no conclusion

O=NN(CCCCO)c1ccccc1
mutagenic call [2]: no conclusion

CC(C)NCC1CCc2cc(CO)c([N+](=O)[O-])cc2N1 (configuration not stated)
mutagenic call [3]: inactive; negative
mutagenic call [4]: active; positive
mutagenic call (Species/Cell Type: Salmonella typhimurium, Assay Type: Forward and reverse gene mutation, body fluid assay, Assay Code: BFU+, Evaluation Type: Evaluation A (Pre-1980)): active; positive
mutagenic call (Species/Cell Type: Salmonella typhimurium, Assay Type: Forward and reverse gene mutation, host-mediated assay, Assay Code: HMA+, Evaluation Type: Evaluation A (Pre-1980)): active; positive

ClC1C(Cl)C(Cl)C(Cl)C(Cl)C1Cl (configuration not stated)
mutagenic call (Species/Cell Type: Allium cepa, Assay Type: Chromosome aberrations, Assay Code: ALC+D, Dose Response: With dose response, Evaluation Type: Evaluation A (Pre-1980)): active; positive
mutagenic call [5]: no conclusion
mutagenic call (Species/Cell Type: Hordeum vulgare (barley), Assay Type: Chromosome aberrations, Assay Code: HOC+D, Dose Response: With dose response, Evaluation Type: Evaluation A (Pre-1980)): active; positive
call [6]: active; positive
mutagenic call (Species/Cell Type: Saccharomyces cerevisiae, Assay Type: Mitotic recombination or gene conversion, Assay Code: YEC+, Evaluation Type: Evaluation A (Pre-1980)): active; positive
mutagenic call (Species/Cell Type: Saccharomyces cerevisiae, Assay Type: Reverse gene mutation, Assay Code: YER-*, Activation: With metabolic activation, Evaluation Type: Evaluation A (Pre-1980)): inactive; negative
mutagenic call (Species/Cell Type: Salmonella typhimurium, Serratia marcesens, Assay Type: Forward and reverse gene mutation, host-mediated assay, Assay Code: HM2T, Evaluation Type: Evaluation A (Pre-1980)): no conclusion
mutagenic call (Species/Cell Type: Tradescantia species, Assay Type: Chromosome aberrations, Assay Code: TRC+D, Dose Response: With dose response, Evaluation Type: Evaluation A (Pre-1980)): active; positive
mutagenic call (Species/Cell Type: Vicia faba, Assay Type: Chromosome aberrations, Assay Code: VIC+D, Dose Response: With dose response, Evaluation Type: Evaluation A (Pre-1980)): active; positive

CC(CN(CC(=O)O)CC(=O)O)N(CC(=O)O)CC(=O)O (configuration not stated)
mutagenic call (Species/Cell Type: Chinese hamster lung (V79) cells, Assay Type: Forward gene mutation at the HPRT or ouabain locus, Assay Code: V79+, Evaluation Type: Evaluation A (Pre-1980)): active; positive

CNN
mutagenic call (Species/Cell Type: Escherichia coli WP2 UVRA, Assay Type: Tryptophan reverse gene mutation, Assay Code: WPU+, Evaluation Type: Evaluation A (Pre-1980)): active; positive
mutagenic call (Species/Cell Type: Human diploid fibroblasts, Assay Type: Unscheduled DNA synthesis (UDS) in vitro, DNA effects, Assay Code: UDH-, Evaluation Type: Evaluation A (Pre-1980)): inactive; negative
call [6]: active; positive
mutagenic call [3]: inactive; negative
mutagenic call [1]: inactive; negative
mutagenic call [7]: active; positive

COc1cc2c(c3oc4cccc(OC(C)=O)c4c(=O)c13)C1C=COC1O2 (configuration not stated)
mutagenic call [2]: no conclusion

COc1cc2c(c3oc(=O)c4c(c13)C(O)CC4O)[C@@H]1C=CO[C@@H]1O2 (some centres not stated)
mutagenic call [7]: active; positive

CCN(CCO)CCNc1ccc(CO)c2sc3cc(Cl)ccc3c(=O)c12
mutagenic call (Species/Cell Type: Mouse lymphoma (L5178Y) cells, Assay Type: Forward gene mutation at the thymidine kinase (TK) locus, chromosome aberrations, Assay Code: L51+, Evaluation Type: Evaluation A (Pre-1980)): active; positive

c1nncnn1
mutagenic call (Species/Cell Type: Bacillus subtilis (H17 vs M45), Assay Type: Rec-assay, spot test, DNA effects (bacterial DNA repair), Assay Code: REWT, Evaluation Type: Evaluation A (Pre-1980)): no conclusion

O[C@@H]1[C@H]2O[C@H]2c2cc3ccc4cccc5ccc(c2[C@H]1O)c3c45
mutagenic call [4]: active; positive

CCCCCC[C@@H](O)[C@@H]1C2=C(C[C@H]([C@H](O)[C@@H]3CC=CC(=O)O3)CC3=C(C(=O)OC3=O)[C@@H]1O)C(=O)OC2=O
mutagenic call (Species/Cell Type: Bacillus subtilis (H17 vs M45), Assay Type: Rec-assay, spot test, DNA effects (bacterial DNA repair), Assay Code: REW-, Evaluation Type: Evaluation A (Pre-1980)): inactive; negative
mutagenic call (Species/Cell Type: Rodents, Sex: Male, Assay Type: Dominant lethal test, Assay Code: DLT+, Evaluation Type: Evaluation A (Pre-1980)): active; positive
mutagenic call [8]: inactive; negative
mutagenic call [2]: no conclusion

O=C(O)c1ccc([N+](=O)[O-])cc1
mutagenic call [9]: inactive; negative

O=C(c1ccccc1)C(O)c1ccccc1 (configuration not stated)
call (Species/Cell Type: Nonhuman, Assay Code: CCG-L, Evaluation Type: Evaluation A (Pre-1980)): inactive; negative

COc1cc(-c2ccc(-[n+]3nc(-c4ccccc4)nn3-c3ccc([N+](=O)[O-])cc3)c(OC)c2)ccc1-[n+]1nc(-c2ccccc2)nn1-c1ccc([N+](=O)[O-])cc1
mutagenic call (Species/Cell Type: Bacillus subtilis (H17 vs M45T), Assay Type: Rec-assay, spot test, DNA effects (bacterial DNA repair), Assay Code: REXT, Evaluation Type: Evaluation A (Pre-1980)): no conclusion

COCCl
call [6]: active; positive
mutagenic call (Species/Cell Type: Syrian hamster embryo (SA7/SHE) cells, Assay Type: Cell transformation, viral enhanced, Assay Code: CT7+, Evaluation Type: Evaluation A (Pre-1980)): active; positive

N=C1C=CC(=C(c2ccc(N)cc2)c2ccc(N)cc2)C=C1
mutagenic call [10]: active; positive
mutagenic call (Species/Cell Type: Fischer rat embryo (RLV/1706) cells, Assay Type: Cell transformation, viral enhanced, Assay Code: CTR+, Evaluation Type: Evaluation A (Pre-1980)): active; positive
mutagenic call (Species/Cell Type: Mouse (BALB/c-3T3) cells, Assay Type: Cell transformation, Assay Code: CTB+D, Dose Response: With dose response, Evaluation Type: Evaluation A (Pre-1980)): active; positive
call [6]: active; positive
mutagenic call [8]: inactive; negative
mutagenic call [11]: inactive; negative
mutagenic call [9]: inactive; negative
mutagenic call (Species/Cell Type: Syrian hamster embryo (SHE) cells, Assay Type: Cell transformation, clonal assay, Assay Code: CTCT, Evaluation Type: Evaluation A (Pre-1980)): no conclusion

Clc1ccccc1Cl
mutagenic call (Species/Cell Type: Mammalian polychromatic erythrocytes, Assay Type: Micronucleus test, chromosome aberrations, Assay Code: MNT+, Evaluation Type: Evaluation B (Post-1980)): active; positive

Cc1c([N+](=O)[O-])cc[n+]([O-])c1C
mutagenic call [10]: active; positive

CCOP(=O)(OCC)SCCSCC (tested in a mixture with another compound)
mutagenic call (Species/Cell Type: Bacillus subtilis (H17 vs M45), Assay Type: Rec-assay, spot test, DNA effects (bacterial DNA repair), Assay Code: REW+, Evaluation Type: Evaluation A (Pre-1980)): active; positive
mutagenic call (Species/Cell Type: Drosophila melanogaster, Assay Type: Sex-linked recessive lethal gene mutation, Assay Code: SRL-, Evaluation Type: Evaluation A (Pre-1980)): inactive; negative
mutagenic call (Species/Cell Type: Escherichia coli WP2 UVRA, Assay Type: Tryptophan reverse gene mutation, Assay Code: WPU+D, Dose Response: With dose response, Evaluation Type: Evaluation A (Pre-1980)): active; positive
mutagenic call (Species/Cell Type: Escherichia coli polA (W3119 vs P3478), Assay Type: Rec-assay, DNA effects (bacterial DNA repair), Assay Code: RE1-, Evaluation Type: Evaluation A (Pre-1980)): inactive; negative
mutagenic call (Species/Cell Type: Nonhuman, Assay Type: Sister-chromatid exchange (SCE) in vitro, Assay Code: SC2+D*, Activation: With metabolic activation, Dose Response: With dose response, Evaluation Type: Evaluation B (Post-1980)): active; positive
mutagenic call (Species/Cell Type: Saccharomyces cerevisiae, Assay Type: Mitotic recombination or gene conversion, Assay Code: YEH+, Evaluation Type: Evaluation A (Pre-1980)): active; positive
mutagenic call [4]: active; positive

OCC(c1ccc(Cl)cc1)c1ccc(Cl)cc1
mutagenic call [5]: no conclusion

O=c1cnn([C@@H]2O[C@H](CO)[C@@H](O)[C@H]2O)c(=O)[nH]1
mutagenic call [5]: no conclusion
mutagenic call (Species/Cell Type: Rabbit, Sex: Male, Assay Type: Sperm morphology, Assay Code: SPR+, Evaluation Type: Evaluation A (Pre-1980)): active; positive

COc1ccccc1-c1ccccc1
mutagenic call [8]: inactive; negative
mutagenic call [11]: inactive; negative

O=S(=O)(O)c1c(N=Nc2c(O)ccc3ccccc23)ccc2ccccc12
mutagenic call [11]: inactive; negative
